The record followed here is ChEMBL document CHEMBL1240403, “Penicillin-binding protein gene alterations in Streptococcus uberis isolates presenting decreased susceptibility to penicillin” (2010).

Converted amounts (≈) assume the structure as drawn.

The subject of assay [1] is Streptococcus uberis. Nature of the assay: Antimicrobial activity against Streptococcus uberis ATCC 19436 assessed as inhibition of visible growth after 24 hrs by broth macrodilution method. Format: functional. The settings on record: ATCC 19436, 24 h.
Assay [2] has as its system Streptococcus uberis. Put plainly: Antimicrobial activity against Streptococcus uberis ATCC 19436 harboring PAP1A A227T, PBP2B N366I/T402I and PBP2X E381K/Q554E mutation after 15 passages assessed as inhibition of visible growth by broth macrodilution method. Type of assay: functional.
In assay [3] the test system is Streptococcus uberis. Nature of the assay: Antimicrobial activity against Streptococcus uberis ATCC 19436 harboring PAP1A A227T, PBP2B N366I/T402I and PBP2X E381K/D524A/Q554E mutation after 18 passages assessed as inhibition of visible growth by broth macrodilution method. Type of assay: functional.
Assay [4] relates to Streptococcus uberis. Nature of the assay: Antimicrobial activity against Streptococcus uberis ATCC 19436 harboring PAP1A A227T/G386R, PBP2B N366I/T402I and PBP2X E381K/D524A/Q554E mutation after 30 passages assessed as inhibition of visible growth by broth macrodilution method. Format: functional.
The test system of assay [5] is Streptococcus uberis. Nature of the assay: Antimicrobial activity against Streptococcus uberis ATCC 8749 harboring PBP2B N366I/T402I/V570A/P575S and PBP2X A492E mutation assessed as inhibition of visible growth by broth macrodilution method. Type of assay: functional.
Assay [6] has as its system Streptococcus uberis. Nature of the assay: Antimicrobial activity against Streptococcus uberis ATCC 8749 harboring PAP1A R273H, PBP2B N366I/T402I and PBP2X E381K/Q554E mutation after 16 passages assessed as inhibition of visible growth by broth macrodilution method. Format: functional.
The test system of assay [7] is Streptococcus uberis. Nature of the assay: Antimicrobial activity against Streptococcus uberis ATCC 8749 harboring PAP1A A227T/G386R, PBP2B N366I/T402I and PBP2X E381K/D524A/Q554E mutation after 28 passages assessed as inhibition of visible growth broth macrodilution method. Type of assay: functional.
The subject of assay [8] is Streptococcus uberis. Put plainly: Antimicrobial activity against Streptococcus uberis ATCC 9529 harboring PBP2B N366I/T402I and PBP2X E381K/Q554E mutation assessed as inhibition of visible growth by broth macrodilution method. Format: functional.
Assay [9] deals with Streptococcus uberis. Put plainly: Antimicrobial activity against Streptococcus uberis ATCC 9529 harboring PAP1A R273P, PBP2B N366I/T402I and PBP2X E381K/Q554E mutation after 11 passages assessed as inhibition of visible growth by broth macrodilution method. Type of assay: functional.
Assay [10] has as its system Streptococcus uberis. Put plainly: Antimicrobial activity against Streptococcus uberis ATCC 9529 harboring PAP1A A227T/G386R, PBP2B N366I/T402I and PBP2X E381K/D524A/Q554E mutation after 39 passages assessed as inhibition of visible growth by broth macrodilution method. Type of assay: functional.
Assay [11] relates to Streptococcus uberis. Nature of the assay: Antimicrobial activity against Streptococcus uberis isolate ALP8092 harboring PAP1A G386R and PBP2X E381K/Q554E mutation assessed as inhibition of visible growth after 24 hrs by broth macrodilution method. Format: functional. The settings on record: isolate ALP8092, 24 h.
The subject of assay [12] is Streptococcus uberis. Nature of the assay: Antimicrobial activity against Streptococcus uberis isolate ALP 8144 harboring PBP2X E381K/Q554E mutation assessed as inhibition of visible growth after 24 hrs by broth macrodilution method. Type of assay: functional. The settings on record: isolate ALP 8144, 24 h.
Assay [13] deals with Streptococcus uberis. Nature of the assay: Antimicrobial activity against Streptococcus uberis isolate BL246 harboring PBP2B N366I/T402I and PBP2X E381K/Q554E mutation assessed as inhibition of visible growth after 24 hrs by broth macrodilution method. Format: functional. To be noted: isolate BL246, 24 h.
Assay [14] deals with Streptococcus uberis. Nature of the assay: Antimicrobial activity against Streptococcus uberis isolate 20568 harboring PAP1A G386R, PBP2B N366I/T402I/V570A/P575S and PBP2X E381K/Q554E mutation assessed as inhibition of visible growth after 24 hrs by broth macrodilution method. Format: functional. The settings on record: isolate 20568, 24 h.
Assay [15] concerns Streptococcus uberis. Put plainly: Antimicrobial activity against Streptococcus uberis isolate 20592 harboring and PBP2X E381K/Q554E mutation assessed as inhibition of visible growth after 24 hrs by broth macrodilution method. Type of assay: functional. The settings on record: isolate 20592, 24 h.
For assay [16], the system named is Streptococcus uberis. Put plainly: Antimicrobial activity against Streptococcus uberis isolate 20618 harboring PAP1A G386R and PBP2X E381K/Q554E mutation assessed as inhibition of visible growth after 24 hrs by broth macrodilution method. To be noted: isolate 20618, 24 h. Format: functional.
For assay [17], the system named is Streptococcus uberis. Nature of the assay: Antimicrobial activity against Streptococcus uberis ATCC 8749 harboring PAP1A A227T/G386R, PBP2B N366I/T402I and PBP2X E381K/D524A/Q554E mutation after 37 passages assessed as inhibition of visible growth broth macrodilution method. Format: functional.
Assay [18] has as its system Streptococcus uberis. Put plainly: Antimicrobial activity against Streptococcus uberis ATCC 9529 harboring PAP1A R273P, PBP2B N366I/T402I and PBP2X E381K/Q554E mutation after 28 passages assessed as inhibition of visible growth by broth macrodilution method. Format: functional.
The test system of assay [19] is Streptococcus uberis. Put plainly: Antimicrobial activity against Streptococcus uberis isolate 1.11 harboring PAP1A G386R, PBP2B T593A and PBP2X E381K/Q554E mutation assessed as inhibition of visible growth after 24 hrs by broth macrodilution method. To be noted: isolate 1.11, 24 h.

Take `CC1(C)S[C@@H]2[C@H](NC(=O)Cc3ccccc3)C(=O)N2[C@H]1C(=O)O` [PENICILLIN G]: the MIC in assay [1] worked out at 0.032 µg/mL (≈ 0.0957 µM); in assay [2] it was 0.5 µg/mL (≈ 1.5 µM); in assay [3], 1 µg/mL (≈ 2.99 µM); in assay [4] it was 2 µg/mL (≈ 5.98 µM); in [5] it was 0.016 µg/mL (≈ 0.0478 µM); in assay [6], 0.5 µg/mL (≈ 1.5 µM). Besides, the MIC is 1 µg/mL (≈ 2.99 µM) in assay [7]; 0.128 µg/mL (≈ 0.383 µM) in assay [8]; 0.5 µg/mL (≈ 1.5 µM) in assay [9]; 2 µg/mL (≈ 5.98 µM) in [10]; 0.25 µg/mL (≈ 0.748 µM) in [11]; 0.25 µg/mL (≈ 0.748 µM) in assay [12]. The MIC in assay [13] was determined as 0.25 µg/mL (≈ 0.748 µM); in assay [14] it was 0.5 µg/mL (≈ 1.5 µM); in assay [15], 0.5 µg/mL (≈ 1.5 µM); in assay [16] it was 0.25 µg/mL (≈ 0.748 µM); in assay [17], 2 µg/mL (≈ 5.98 µM); in assay [18], 1 µg/mL (≈ 2.99 µM). Also, in [19], the MIC turned out to be 0.25 µg/mL (≈ 0.748 µM).

What is called MIC is the lowest concentration that inhibits growth of the organism.
